# Assay results: patent publication US20140228286A1, “SPECIFIC PDE4B-INHIBITORS FOR THE TREATMENT OF DIABETES MELLITUS” (BOEHRINGER INGELHEIM INTERNATIONAL GMBH, priority 2013, published 2014)
# Biological target: T1, PDE4B (Homo sapiens, UniProt Q07343)
# T1 construct: active site fragment comprising the amino acids 152-484
# Test: PDE4B Scintillation Proximity (SPA) Assay
# Assay type: biochemical
# Details: PDE4B active site fragment amino acids 152-484; [3H]cAMP; 30° C., one hour; read-out: Experimentally determined IC50-value for PDE4B inhibition
# Source text: The IC50-values of the compounds of the invention (Examples 1.1 to 1.47) with respect to their PDE4B-inhibiting ability have been determined with a Scintillation Proximity (SPA) Assay (GE Healthcare, No. TRKQ7090). The Scintillation Proximity (SPA) Assay is based on the detection of the different affinities of the cyclic 3′-5′adenosine monophosphate (cAMP, low affinity) and the linear 5′-adenosine monophosphate (AMP, high affinity) to yttrium-silicate-scintillator beads. The cAMP-specific phosphodiesterase (PDE) PDE4B cleaves the 3′-phosphodiester bond of the tritium-labelled-[^3H]cAMP to the [^3H]5′-AMP. This [^3H]5′-AMP associates with the scintillator beads because of their higher affinity and causes scintillations (light flashes) which can be measured in a Wallac Microbeta Scintillation Counter.
# 10 μl of a [^3H]cAMP-solution (0.05 μCi in H2O, 10-30 Ci/mmol) are added to 89 μl of a PDE4B-enzyme-solution (active site fragment comprising the amino acids 152-484; 0.15-0.18 ng) in assay buffer (50 mM Tris HCl pH 7.5; 8.3 mM MgCl2; 1,7 mM ethylene glyclol tetraacetic acid (EGTA); 0.25 mg/ml bovine serum albumin (BSA)) and this mixture is incubated at 30° C. for one hour
# a) without the compound to be tested (in the presence of 1 μl dimethylsulfoxide (DMSO), corresponding to 1% DMSO) and b) in the presence of the compound to be tested in a concentration of 125 μM, 25 μM, 5 μM, 1 μM, 200 nM, 40 nM, 8 nM, 1.6 nM, 0.32 nM, 0.064 nM, 0.0128 nM (dilution series in 5er-steps beginning from 125 μM until 0.0128 nM, in the presence of 1% DMSO).
# After this incubation the reaction is stopped by the addition of 50 μl of bead-solution (500 mg beads/35 ml H2O, 18 mM zinc sulfate). In the following 45 minutes the beads have the opportunity to form a sediment. After that the scintillations are measured in the scintillation counter. If the tested compound is able to inhibit the enzymatic activity of the PDE4B-enzyme, less [^3H]AMP depending on the concentration of the tested compound is produced and less scintillations are measurable. […] The IC50-value stands for the compound concentration at which the PDE4B enzyme activity is inhibited to a half maximal value. Therefore the lower the IC50-value is the better is the PDE4B inhibition.
# T1 sequence (Q07343 324-656): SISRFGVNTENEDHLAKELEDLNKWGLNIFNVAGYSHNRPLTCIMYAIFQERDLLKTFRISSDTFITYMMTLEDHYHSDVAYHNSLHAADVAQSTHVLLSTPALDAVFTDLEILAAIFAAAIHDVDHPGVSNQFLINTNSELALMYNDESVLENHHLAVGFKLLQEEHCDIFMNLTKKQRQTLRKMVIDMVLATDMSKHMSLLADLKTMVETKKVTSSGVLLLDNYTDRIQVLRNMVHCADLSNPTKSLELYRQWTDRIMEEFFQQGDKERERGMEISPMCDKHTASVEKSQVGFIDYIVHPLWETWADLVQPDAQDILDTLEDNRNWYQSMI
row,Compound,IC50
1,"CC(C)[C@H](CO)Nc1nc(N2CCC(c3ccc(Cl)cc3)CC2)nc2c1[S+]([O-])CC2 (stereo partly drawn) [Example 1.1, (R)-2-{2-[4-(4-chlorophenyl)-piperidin-1-yl]-5-oxo-6,7-dihydro-5H-5λ^4-thieno[3,2-d]pyrimidin-4-ylamino}-3-methylbutan-1-ol]",24.2 nM
2,"[O-][S+]1CCc2nc(N3CCC(c4ccc(Cl)cc4)CC3)nc(NC3(CO)CC3)c21 (stereo not drawn) [Example 1.2, (1-{2-[4-(4-chlorophenyl)-piperidin-1-yl]-5-oxo-6,7-dihydro-5H-5λ^4-thieno[3,2-d]pyrimidin-4-ylamino}-cyclopropyl)-methanol]",3.4 nM
3,"CCC[C@H](CO)Nc1nc(N2CCC(c3ccc(Cl)cc3)CC2)nc2c1[S+]([O-])CC2 (stereo partly drawn) [Example 1.3, (R)-2-{2-[4-(4-chlorophenyl)-piperidin-1-yl]-5-oxo-6,7-dihydro-5H-5λ^4-thieno[3,2-d]pyrimidin-4-ylamino}-pentan-1-ol]",8.3 nM
4,"CC(C)(O)[C@H](Nc1nc(N2CCC(c3ccc(Cl)cc3)CC2)nc2c1[S+]([O-])CC2)c1ccc(F)cc1 (stereo partly drawn) [Example 1.4, (R)-1-{2-[4-(4-chlorophenyl)-piperidin-1-yl]-5-oxo-6,7-dihydro-5H-5λ^4-thieno[3,2-d]pyrimidin-4-ylamino}-1-(4-fluorophenyl)-2-methylpropan-2-ol]",15.3 nM
5,"CN1C[C@@H](Nc2nc(N3CCC(c4ccc(Cl)cc4)CC3)nc3c2[S+]([O-])CC3)CCC1=O (stereo partly drawn) [Example 1.5, (S)-5-{2-[4-(4-chlorophenyl)-piperidin-1-yl]-5-oxo-6,7-dihydro-5H-5λ^4-thieno[3,2-d]pyrimidin-4-ylamino}-1-methylpiperidin-2-one]",0.6 nM
6,"[O-][S+]1CCc2nc(N3CCC(c4ccc(Cl)cc4)CC3)nc(NC3CCOCC3)c21 (stereo not drawn) [Example 1.6, {2-[4-(4-chlorophenyl)-piperidin-1-yl]-5-oxo-6,7-dihydro-5H-5λ^4-thieno[3,2-d]pyrimidin-4-yl}-(tetrahydropyran-4-yl)-amine]",4.7 nM
7,"CN1C(=O)Nc2ccccc2C12CCN(c1nc3c(c(NC4(CO)CC4)n1)[S+]([O-])CC3)CC2 (stereo not drawn) [Example 1.7, 1-(4-(1-hydroxymethylcyclopropylamino)-5-oxo-6,7-dihydro-5H-5λ^4-thieno[3,2-d]pyrimidin-2-yl)-3′-methyl-1′H-spiro[piperidin-4,4′-quinazolin]-2′(3′H)-one]",> 10000 nM
8,"[O-][S+]1CCc2nc(N3CCC(c4noc5ccccc45)CC3)nc(NC3(CO)CC3)c21 (stereo not drawn) [Example 1.8, {1-[2-(4-benzo[d]isoxazol-3-yl-piperidin-1-yl)-5-oxo-6,7-dihydro-5H-5λ^4-thieno[3,2-d]pyrimidin-4-ylamino]-cyclopropyl}-methanol]",1.9 nM
9,"CCc1[nH]c2ccc(F)cc2c1C1CCN(c2nc3c(c(NC4(CO)CC4)n2)[S+]([O-])CC3)CC1 (stereo not drawn) [Example 1.9, (1-{2-[4-(2-ethyl-5-fluoro-1H-indol-3-yl)-piperidin-1-yl]-5-oxo-6,7-dihydro-5H-5λ^4-thieno[3,2-d]pyrimidin-4-ylamino}-cyclopropyl)-methanol]",53.8 nM
10,"CN1C[C@@H](Nc2nc(N3CCC(C#N)(c4ccccc4)CC3)nc3c2[S+]([O-])CC3)CCC1=O (stereo partly drawn) [Example 1.10, 1-[4-((S)-1-methyl-6-oxopiperidin-3-ylamino)-5-oxo-6,7-dihydro-5H-5λ^4-thieno[3,2-d]pyrimidin-2-yl]-4-phenylpiperidin-4-carbonitrile]",3.5 nM
11,"CN1C(=O)Nc2ccccc2C12CCN(c1nc3c(c(NC4CCOCC4)n1)[S+]([O-])CC3)CC2 (stereo not drawn) [Example 1.11, 3′-methyl-1-(4-(tetrahydro-2H-pyran-4-ylamino)-5-oxo-6,7-dihydro-5H-5λ^4-thieno[3,2-d]pyrimidin-2-yl)-1′H-spiro[piperidin-4,4′-quinazolin]-2′(3′H)-one]",> 10000 nM
12,"[O-][S+]1CCc2nc(N3CCC(c4ccncc4)CC3)nc(Nc3cccc(F)c3)c21 (stereo not drawn) [Example 1.12, (3-fluorophenyl)-[5-oxo-2-(3,4,5,6-tetrahydro-2H-[4,4′]bipyridinyl-1-yl)-6,7-dihydro-5H-5λ^4-thieno[3,2-d]pyrimidin-4-yl]-amine]",> 10000 nM
13,"CCc1[nH]c2ccc(F)cc2c1C1CCN(c2nc3c(c(Nc4cccc(F)c4)n2)[S+]([O-])CC3)CC1 (stereo not drawn) [Example 1.13, {2-[4-(2-ethyl-5-fluoro-1H-indol-3-yl)-piperidin-1-yl]-5-oxo-6,7-dihydro-5H-5λ^4-thieno[3,2-d]pyrimidin-4-yl}-(3-fluorophenyl)-amine]",> 10000 nM
14,"[O-][S+]1CCc2nc(N3CCC(c4ccc(F)cc4F)CC3)nc(NC3(CO)CC3)c21 (stereo not drawn) [Example 1.14, (1-{2-[4-(2,4-difluorophenyl)-piperidin-1-yl]-5-oxo-6,7-dihydro-5H-5λ^4-thieno[3,2-d]pyrimidin-4-ylamino}-cyclopropyl)-methanol]",16 nM
15,"[O-][S+]1CCc2nc(N3CCC(c4ccc(F)cc4F)CC3)nc(NC3CCOCC3)c21 (stereo not drawn) [Example 1.15, {2-[4-(2,4-difluorophenyl)-piperidin-1-yl]-5-oxo-6,7-dihydro-5H-5λ^4-thieno[3,2-d]pyrimidin-4-yl}-(tetrahydropyran-4-yl)-amine]",15.4 nM
16,"CN1C[C@@H](Nc2nc(N3CCC(c4nc5ccccc5o4)CC3)nc3c2[S+]([O-])CC3)CCC1=O (stereo partly drawn) [Example 1.16, (S)-5-[2-(4-benzoxazol-2-yl-piperidin-1-yl)-5-oxo-6,7-dihydro-5H-5λ^4-thieno[3,2-d]pyrimidin-4-ylamino]-1-methylpiperidin-2-one]",0.1 nM
17,"[O-][S+]1CCc2nc(N3CCC(c4noc5cc(F)ccc45)CC3)nc(NC3(CO)CC3)c21 (stereo not drawn) [Example 1.17, (1-{2-[4-(6-fluorobenzo[d]isoxazol-3-yl)-piperidin-1-yl]-5-oxo-6,7-dihydro-5H-5λ^4-thieno[3,2-d]pyrimidin-4-ylamino}-cyclopropyl)-methanol]",2.73 nM
18,"[O-][S+]1CCc2nc(N3CCC(c4noc5ccc(F)cc45)CC3)nc(NC3(CO)CC3)c21 (stereo not drawn) [Example 1.18, (1-{2-[4-(5-fluorobenzo[d]isoxazol-3-yl)-piperidin-1-yl]-5-oxo-6,7-dihydro-5H-5λ^4-thieno[3,2-d]pyrimidin-4-ylamino}-cyclopropyl)-methanol]",1.89 nM
19,"[O-][S+]1CCc2nc(N3CCC(c4cc(-c5ccco5)n[nH]4)CC3)nc(NC3CCOCC3)c21 (stereo not drawn) [Example 1.19, {2-[4-(5-furan-2-yl-2H-pyrazol-3-yl)-piperidin-1-yl]-5-oxo-6,7-dihydro-5H-5λ^4-thieno[3,2-d]pyrimidin-4-yl}-(tetrahydropyran-4-yl)-amine]",3.46 nM
20,"[O-][S+]1CCc2nc(N3CCC(c4nc(-c5ccncc5)no4)CC3)nc(Nc3cccc(F)c3)c21 (stereo not drawn) [Example 1.20, (3-fluorophenyl)-{5-oxo-2-[4-(3-pyridin-4-yl-[1,2,4]oxadiazol-5-yl)-piperidin-1-yl]-6,7-dihydro-5H-5λ^4-thieno[3,2-d]pyrimidin-4-yl}-amine]",2.7 nM
21,"CC(C)[C@H](CO)Nc1nc(N2CCC(c3nc(-c4ccncc4)no3)CC2)nc2c1[S+]([O-])CC2 (stereo partly drawn) [Example 1.21, (R)-3-methyl-2-{5-oxo-2-[4-(3-pyridin-4-yl-[1,2,4]oxadiazol-5-yl)-piperidin-1-yl]-6,7-dihydro-5H-5λ^4-thieno[3,2-d]pyrimidin-4-ylamino}-butan-1-ol]",> 10000 nM
